Where “and” joins values, the source holds several entries; their conditions need not be identical. Equal entries are not always repeated.
Assays:
Human airway fibroblasts = assay: Human airway fibroblast cell number (haemocytometer); format: cell-based; settings: stimulus Thrombin (0.3 U/ml), compound 10 μM
Text: (§1) Human airway fibroblasts were obtained from volunteers in a follow-up of the Melbourne Epidemiological Survey of Childhood Asthma (MESCA) (Oswald et al., 1994) initially recruited at age 7 in 1965 and now 42 years old. Volunteers underwent bronchial biopsy which provided tissue samples of epithelium and mucosa of approximately 2 mm^3. These specimens were dissected to remove the epithelium and placed in plastic culture plates. Fibroblasts grew by explant culture over a six week period when maintained according to previously described methods (Zhang et al., 1996). Cells were seeded at subconfluent densities onto six cell plates and after 72 hours were rendered quiescent by serum deprivation. Twenty four hours after serum removal, cells were exposed to thrombin (0.3 U/ml) together with a serum-free medium supplement containing insulin, transferrin and selenium. Cells were harvested by incubation with Trypsin (0.5% w/v) for 10 min. or until a single cell suspension was produced. Cell numbers were then determined using a haemocytometer.

[1] = test system: Human Airway Smooth Muscle cells; assay: Human airway smooth muscle cell number; format: cell-based; settings: compound 10 μM
Text: as §1
Smooth muscle cells were obtained from airways resected from lung transplant recipients and cultured as previously described in detail (Fernandes et al., 1999). Cell numbers were determined in experiments of the same design as those described for human airway fibroblasts with the additional stimulus of 1% (v/v) fetal calf serum (FCS) being evaluated. In addition, [^3H]-thymidine incorporation was determined between 24 and 28 hours after the addition of thrombin to determine DNA synthesis (Fernandes et al. 1999).

[2] = test system: Airway smooth muscle cells; assay: Shape change of cultured airway smooth muscle cells; format: cell-based, human; settings: 72 hours in culture, 5% FCS, 10 micro M
A549 cells = assay: A549 cell DNA synthesis ([3H]-thymidine); format: cell-based; settings: 5% fetal calf serum, 10 micromolar, [3H]-thymidine 24 hours after addition
Protocol: A549 cells were maintained in DMEM containing 5% fetal calf serum and undergoing asynchronous proliferation. DNA synthesis was determined by the addition of [3H]-thymidine 24 hours after the addition of one of 2-methoxyestradiol, 6-oxo-2-methoxyestradiol and 2-methoxyestradiol-17β-D-glucuronide.

[3] = biological target: T1, estrogen receptor (rat uterine cytosol) (Rattus norvegicus, UniProt P06211)
T1 sequence (P06211 1-600): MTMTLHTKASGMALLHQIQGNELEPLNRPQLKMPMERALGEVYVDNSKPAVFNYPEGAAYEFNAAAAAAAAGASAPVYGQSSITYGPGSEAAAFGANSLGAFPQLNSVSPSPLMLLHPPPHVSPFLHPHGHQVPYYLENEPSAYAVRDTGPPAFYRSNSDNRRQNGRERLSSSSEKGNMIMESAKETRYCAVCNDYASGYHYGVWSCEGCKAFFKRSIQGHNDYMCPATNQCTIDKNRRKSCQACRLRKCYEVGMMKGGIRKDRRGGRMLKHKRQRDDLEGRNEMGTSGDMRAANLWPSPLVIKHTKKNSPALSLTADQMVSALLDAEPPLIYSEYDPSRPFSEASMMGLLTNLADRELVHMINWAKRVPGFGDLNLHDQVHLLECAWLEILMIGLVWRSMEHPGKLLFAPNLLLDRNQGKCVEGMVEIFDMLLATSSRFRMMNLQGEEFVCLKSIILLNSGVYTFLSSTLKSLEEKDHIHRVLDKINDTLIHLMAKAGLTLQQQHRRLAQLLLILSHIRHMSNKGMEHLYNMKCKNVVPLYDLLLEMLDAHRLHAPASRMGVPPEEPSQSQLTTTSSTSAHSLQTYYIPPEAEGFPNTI

[4] = biological target: T1, estrogen receptor (rat uterine cytosol); assay: biochemical
[5] = biological target: purified E. Coli-derived β-glucuronidase (Escherichia coli, UniProt P05804); assay: Susceptibility of 2-MEG to metabolism by E. Coli β-glucuronidase (HPLC); format: in vitro ADME; settings: incubation with E. Coli β-glucuronidase for 16 hours in Tyrodes buffer
Chain of purified E. Coli-derived β-glucuronidase (P05804 whole entry): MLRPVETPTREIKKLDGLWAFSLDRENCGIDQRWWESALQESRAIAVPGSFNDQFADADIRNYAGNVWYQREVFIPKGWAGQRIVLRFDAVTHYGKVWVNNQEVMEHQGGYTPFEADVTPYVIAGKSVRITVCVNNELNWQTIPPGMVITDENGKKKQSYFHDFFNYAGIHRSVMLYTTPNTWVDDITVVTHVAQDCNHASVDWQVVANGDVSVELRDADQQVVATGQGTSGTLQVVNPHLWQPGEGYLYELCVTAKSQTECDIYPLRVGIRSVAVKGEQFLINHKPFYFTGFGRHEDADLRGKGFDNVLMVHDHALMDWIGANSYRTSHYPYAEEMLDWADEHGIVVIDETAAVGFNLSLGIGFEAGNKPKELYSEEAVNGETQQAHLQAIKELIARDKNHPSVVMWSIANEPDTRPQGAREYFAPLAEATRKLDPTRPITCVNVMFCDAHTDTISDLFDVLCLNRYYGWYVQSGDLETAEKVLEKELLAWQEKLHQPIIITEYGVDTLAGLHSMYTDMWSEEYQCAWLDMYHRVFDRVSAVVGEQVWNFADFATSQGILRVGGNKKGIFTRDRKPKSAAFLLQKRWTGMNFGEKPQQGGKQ
Protocol: At the end of these incubation periods, extraction was carried out by using 100 μl of reaction mixture with 200 μl of acetontrile (ACN) followed by the addition of 5 μl 2M HCL, vortexing and centrifugation at 1500 g (ambient temperature). Samples of enzyme incubates or quality control incubates were then chilled at −20° C. for at least 10 min, prior to removal of 120 μl of the upper (ACN) phase which is added to 120 μl distilled H2O. One hundred μl of this extract was injected into a Hewlett Packard Series 1050 HPLC fitted with a C18 analytical column (Hypersil ODS 3 μM, 4.6×150 mm) guarded by a pre column (Alltech Hypersil ODS 3 μM; 4.6×7.6 mm) and metabolites were detected with a Hewlett Packard 1046A fluorescence detector (I excitation 270 nm, emission, 320 nm). Metabolites were separated in a mobile phase of ACN buffer of 40:60 (buffer comprised 20 mM NaH2 PO4, 0.02% orthophosphoric acid, pH 3.1–3.2) at a flow rate of 0.7 ml/min. for the first 4 min with a linear gradient to a mobile phase of ACN: buffer (76:24) at 4.5 min. which was maintained for the remainder of the separation (10 min).

[6] = Text: The octanol:water partition co-efficient is a measure of the relative aqueous and lipid solubility of a compound.
[7] = incubation with rat renal homogenates for 5.5 hours in Tyrodes buffer

SMILES | Cell Number (% control) (Human airway fibroblasts) | Cell Number (% control) ([1]; stimulus FCS (1%, v/v)) | Cell Number (% control) ([1]; stimulus Thrombin (0.3 U/ml)) | cell shape change [2] | effect on DNA synthesis (A549 cells) | displacement of [3H]estradiol at highest concentration ([3]; 10 μM displacer) | IC50 [4] [nM] | conversion of 2-MEG to 2-MEO [5] [%] | octanol/water partition coefficient ([6]; 1-octanol/water, fluorescence spectroscopy) | aqueous solubility relative to 2-MEO ([6]; inferred from partition coefficients) | logP ([6]; octanol/water) | conversion of 2-MEG to 2-MEO [7] [%] | affinity for estrogen receptors relative to 2-MEO (from logIC50 values) ([3]; rat uterine cytosol, [3H]estradiol displacement)
COc1cc2c(cc1O)CCC1C2CCC2(C)C(O)CCC12 (stereo not drawn) [2-MEO, 1,3,5(10)-estratriene-3,17βdiol 2 methyl ether, reference compound] | 12±8 % control and 12 ± 8, n = 7 % control | 25 ± 9, n = 5 % control | 14 ± 12, n = 10 % control | readily discernible shape change | reduce DNA synthesis significantly | incomplete response | ~100 | – | – | – | – | – | –
COc1cc2c(cc1O)C(=O)C[C@@H]1[C@@H]2CC[C@]2(C)[C@@H](O)CC[C@@H]12 [6-oxo-2-methoxyestradiol, 6-Oxo-2-methoxyestradiol] | – | – | – | – | reduce DNA synthesis significantly | – | – | – | – | – | – | – | –
COc1cc2c(cc1O)CC[C@@H]1[C@@H]2CC[C@]2(C)[C@@H](O[C@@H]3O[C@H](C(=O)O)[C@@H](O)[C@H](O)[C@H]3O)CC[C@@H]12 [2-MEG, 2-Methoxyestradiol-17-b-D-glucopyranosiduronic acid] | – | 47 ± 16, n = 5 % control | 29 ± 8, n = 12 % control | not detected | ineffective | – | – | ~20 | 0.372 | approximately 25 times | −0.429 | ~6 | 1/50
